Experimental data published in patent EP2284178A2, “Inhibitors of cancer cell, T-cell and keratinocyte proliferation” (4SC AG, priority 2005, dated 2007).

Biological target: T1, human Proteasome (Homo sapiens, UniProt P28074)
T1 construct: purchased Immatics, Tübingen
Test: chymotryptic activity of the 20S proteasome (Suc-LLVT-AMC substrate, fluorescence)
Assay type: biochemical
Conditions: for human Proteasome IC50: result given in words
Protocol: The chymotryptic activity of the 20S proteasome (Immatics, Tübingen) was determined using a Tecan Ultra plate reader and Suc-LLVT-AMC as substrate (Bachem). In the wells of a black 96 well polypropylene plate, 2 µl of the respective inhibitor dissolved in DMSO were mixed with 50 µl substrate solution (25 mM HEPES pH 7.5 at 20°C, 0.5 mM EDTA and Suc-LLVT-AMC (in the appropriate concentration) and the reaction was initiated by adding 150 µl proteasome solution (1.3 µg/ml 20S proteasome in 25 mM HEPES pH 7.5 at 20°C, 0.5 mM EDTA, 0.033% (w/v) SDS). Substrate hydrolysis was followed by fluorescence spectroscopy (excitation wavelength: 360 nm; emission wavelength: 465 nm) for 20 min at 30°C and initial velocities were calculated and expressed as change in relative fluorescence units (RFU) per second.

human Proteasome IC50 | IC50 (unit printed as µm) [µM] | Structure (SMILES)
nanomolar | – | CC(C)(C)OC(=O)NC(Cc1ccc(Br)cc1)C(=O)NC(Cc1ccc2ccccc2c1)C(=O)NC(C=NN1CC(=O)NC1=O)Cc1ccccc1 (stereo not drawn) [Compound 7]
nanomolar | – | O=C1CN(N=CC(Cc2ccccc2)NC(=O)C(Cc2ccc3ccccc3c2)NC(=O)C(Cc2ccc(F)cc2)NC(=O)OCc2ccccc2)C(=O)N1 (stereo not drawn) [Compound 9]
– | 3.5 | O=C1CN(/N=C/C(Cc2ccccc2)NC(=O)c2csc(-c3ccc4c(c3)CCO4)n2)C(=O)N1 (stereo not drawn) [Compound 10]
